According to paper PMC6019134, “1,2,6-Thiadiazinones as Novel Narrow Spectrum Calcium/Calmodulin-Dependent Protein Kinase Kinase 2 (CaMKK2) Inhibitors” (Molecules : A Journal of Synthetic Chemistry and Natural …, 2018):
pIC50: −log10 of the molar value. “Also recorded” adds a separate entry of the source.

Columns and labels:
[1] = biological target: T1, CAMKK2 kinase domain (132–470) (Homo sapiens, UniProt Q96RR4); experiment: CaMKK2B TR-FRET tracer displacement assay; assay type: binding; settings: CaMKK2, displacement of tracer 236, average of 2 experiments
T1 construct: CAMKK2 kinase domain (132–470) was cloned in a pNIC-Bio2 vector; 10xHis tag followed by a TEV site (N, cleaved yes); made in house; host or cells: E. coli BL21(DE3)-R3-BirA
Source text: To more accurately determine the relative changes in potency of the TDZ analogues and to enable measurement of accurate IC50^’s, we developed a Time-Resolved Fluorescence Resonance Energy Transfer (TR-FRET) assay. The TR-FRET tracer displacement assays were generated using a protocol derived from the Lanthascreen binding assays (ThermoFisher Scientific, Waltham, MA, USA) [21].

[2] = test system: panel of 46 protein kinases; experiment: DSF kinome selectivity panel, hits over 2 °C; assay type: binding; settings: 10 μM compound, average of 4 experiments; for Kinases Hit DSF > 2 °C: names of the kinases hit, 46 kinases; for Number of Kinases Hit DSF > 2 °C: of 46 kinases
Experimental: The corresponding dianilino-TDZs (1–5) were tested on a panel of 46 protein kinases representing the major kinome branches at a concentration of 10 μM using a Differential Scanning Fluorimetry (DSF). Only analogues 1–3 induced a significant (>2 °C) thermal shift when incubated with a subset of the proteins (Table 1).
Kinase selectivity assay—A home-made kinase panel was generated for the following enzymes: AAK1, BMP2K, BMX, BRAF, CAMK1D, CAMK1G, CAMKK1, CAMKK2B, CDC42BPA, CDK2, CDKL1, CHEK2, CLK1, CSNK1G1, CSNK1G3, CSNK2A1, DYRK1A, DYRK2A, EPHA2, GAK, GSG2, MAPK1, MAP2K7, MAPK14B, MAPK3, PHKG2, PIM1, PLK1, PKMYT1, PRPF4B, RPS6KA1A, RPS6KA5A, RPS6KA6A, SLK, SRPK1, SRPK2, STK3, STK6, STK10, STK17A, STK24, STK38L, TRIB2, TTK, VRK1 and VRK2. Proteins were produced in E. coli, purified in a Ni-chelate column, followed by overnight digestion using TEV protease (made in house with an N-terminal 6xHis tag) and dialysis to remove imidazole. To clear samples of uncleaved proteins and the TEV protease, samples were loaded on new Ni-chelate columns. The flow through was collected, concentrated and loaded to a HiLoad Superdex 200 16/600 column (GE Healthcare, Chicago, IL, USA) for final polishing and buffer exchange.
Starting from 100 µM protein stocks, our kinase panel enzymes were diluted to 1 µM in buffer 100 mM K2HPO4 pH 7.5 containing 150 mM NaCl, 10% glycerol and 5X dye (Applied Biosystems catalogue 4461806). The protein/dye mixture was transferred to a 384-well PCR microplate having 20 µL per well. Compounds in DMSO at 10 mM concentration were added in 20 nL volume, using a liquid handling device setup with a pin head, to make 10 µM compound concentration in the assay plate.
Protein thermal shift data was measured in a qPCR instrument (Applied Biosystems QuantStudio 6) programmed to equilibrate the plate at 25 °C for 5 min followed by ramping the temperature to 95 °C at a rate of 0.05 °C/s. Data was processed using Protein Thermal shift software (Applied Biosystems) by fitting experimental curves to a Boltzmann function to calculate differential thermal shifts (dTm) referenced to protein/dye in 0.2% DMSO.

[3] = biological target: T2, MAP2K7A (Homo sapiens, UniProt O14733); experiment: DSF thermal shift, kinase panel; assay type: binding; settings: 10 μM compound
T2 construct: purchased in-house (home-made panel, SGC-style construct names)
T2 sequence (O14733 1-419): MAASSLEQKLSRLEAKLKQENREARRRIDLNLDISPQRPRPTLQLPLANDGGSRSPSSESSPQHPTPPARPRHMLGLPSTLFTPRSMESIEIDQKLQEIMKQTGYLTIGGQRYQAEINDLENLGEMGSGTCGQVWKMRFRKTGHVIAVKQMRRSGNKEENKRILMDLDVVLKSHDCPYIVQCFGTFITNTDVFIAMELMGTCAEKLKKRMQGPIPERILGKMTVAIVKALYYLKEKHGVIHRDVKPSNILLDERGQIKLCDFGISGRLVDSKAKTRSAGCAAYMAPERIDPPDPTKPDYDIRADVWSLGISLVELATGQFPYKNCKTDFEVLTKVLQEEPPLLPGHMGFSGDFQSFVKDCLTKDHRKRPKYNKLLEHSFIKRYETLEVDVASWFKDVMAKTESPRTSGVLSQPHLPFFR
Summary of the method: (§1)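 Read-out is melting temperature shift (dTm), derived by Boltzmann fitting of fluorescence melt curves and referenced to protein/dye with 0.2% DMSO. Kinase 1 µM, compound 10 µM, phosphate buffer pH 7.5 with NaCl and glycerol; ramp 25→95 °C at 0.05 °C/s.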

[4] = biological target: T3, GSG2A (Homo sapiens, UniProt Q8TF76); experiment: DSF thermal shift, kinase panel; assay type: binding; settings: 10 μM compound
T3 construct: purchased in-house (home-made panel, SGC-style construct names)
T3 sequence (Q8TF76 1-798): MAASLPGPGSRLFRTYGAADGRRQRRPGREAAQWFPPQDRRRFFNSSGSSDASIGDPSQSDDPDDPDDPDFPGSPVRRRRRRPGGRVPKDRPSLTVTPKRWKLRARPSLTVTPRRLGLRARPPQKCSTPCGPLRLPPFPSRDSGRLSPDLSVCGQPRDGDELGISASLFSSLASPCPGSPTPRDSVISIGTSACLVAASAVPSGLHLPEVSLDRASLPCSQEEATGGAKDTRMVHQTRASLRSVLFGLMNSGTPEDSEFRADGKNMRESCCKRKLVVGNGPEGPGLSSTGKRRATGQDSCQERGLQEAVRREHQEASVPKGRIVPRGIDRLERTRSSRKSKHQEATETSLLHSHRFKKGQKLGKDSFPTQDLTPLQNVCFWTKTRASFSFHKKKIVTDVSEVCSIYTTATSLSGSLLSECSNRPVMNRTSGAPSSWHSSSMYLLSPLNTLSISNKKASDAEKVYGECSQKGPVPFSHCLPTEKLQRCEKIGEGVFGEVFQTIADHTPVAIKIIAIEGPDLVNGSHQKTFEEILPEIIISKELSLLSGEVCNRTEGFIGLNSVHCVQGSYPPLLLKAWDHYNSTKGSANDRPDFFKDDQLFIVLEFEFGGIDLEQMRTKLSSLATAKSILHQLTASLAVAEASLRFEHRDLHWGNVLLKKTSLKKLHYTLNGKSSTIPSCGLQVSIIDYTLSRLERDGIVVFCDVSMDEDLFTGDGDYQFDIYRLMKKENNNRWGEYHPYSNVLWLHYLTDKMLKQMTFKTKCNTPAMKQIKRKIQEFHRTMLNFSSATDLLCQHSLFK
Summary of the method: as §1

T1 sequence (Q96RR4 132-470): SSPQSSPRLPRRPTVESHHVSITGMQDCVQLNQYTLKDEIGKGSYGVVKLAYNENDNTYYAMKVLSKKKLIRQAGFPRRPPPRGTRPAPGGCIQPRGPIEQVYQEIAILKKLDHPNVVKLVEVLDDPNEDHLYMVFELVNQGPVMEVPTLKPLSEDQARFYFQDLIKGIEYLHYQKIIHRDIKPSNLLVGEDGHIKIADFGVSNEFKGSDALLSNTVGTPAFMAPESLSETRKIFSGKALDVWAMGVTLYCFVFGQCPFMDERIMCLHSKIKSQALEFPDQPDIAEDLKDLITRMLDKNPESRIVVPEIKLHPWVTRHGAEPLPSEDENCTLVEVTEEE

Cc1ccc(Nc2nsnc(Nc3cccc(C(N)=O)c3)c2=O)cc1O [Compound 1, 3-({5-[(3-Hydroxy-4-methylphenyl)amino]-4-oxo-4H-1,2,6-thiadiazin-3-yl}amino)benzamide]
pIC50 [1]: < 4.30 | Kinases Hit DSF > 2 °C [2]: TRIB2 | Number of Kinases Hit DSF > 2 °C [2]: 1 | ΔTm at 10 µM [3]: 1.1 °C | ΔTm at 10 µM [4]: 0.6 °C

Cc1ccc(Nc2nsnc(Nc3ccc(C(N)=O)cc3)c2=O)cc1O [Compound 2, 4-({5-[(3-Hydroxy-4-methylphenyl)amino]-4-oxo-4H-1,2,6-thiadiazin-3-yl}amino)benzamide]
pIC50 [1]: < 4.30 | melting point: > 300 °C | Kinases Hit DSF > 2 °C [2]: CAMK1D/G/K1/K2B, CDC42BPA, CDK2; also recorded: CHEK2, DYRK2, MAP2K7, PHKG2; also recorded: PIM1, PKMYT1, RPSKA6, STK3, STK17, TTK | Number of Kinases Hit DSF > 2 °C [2]: 16 | ΔTm at 10 µM [3]: 3.1 °C | ΔTm at 10 µM [4]: 1.3 °C

Cc1ccc(Nc2nsnc(Nc3ccc4c(c3)CS(=O)(=O)C4)c2=O)cc1O [Compound 3, 3-[(2,2-Dioxido-1,3-dihydrobenzo[c]thiophen-5-yl)amino]-5-[(3-hydroxy-4-methylphenyl)amino]-4H-1,2,6-thiadiazin-4-one]
pIC50 [1]: 4.47 | melting point: > 300 °C | Kinases Hit DSF > 2 °C [2]: STK10, TRIB2, TTK; also recorded: CAMK1G/2B, CDC42BPA,; also recorded: CLK1, MAP2K7, PIM1, | Number of Kinases Hit DSF > 2 °C [2]: 9 | ΔTm at 10 µM [3]: 3.2 °C | ΔTm at 10 µM [4]: 1.2 °C

CNC(=O)c1ccccc1Nc1nsnc(Nc2cccc(CS(C)(=O)=O)c2)c1=O [Compound 4, N-Methyl-2-([5-({3-[(methylsulfonyl)methyl]phenyl}amino)-4-oxo-4H-1,2,6-thiadiazin-3-yl]-amino}-benzamide]
melting point: > 300 °C | Number of Kinases Hit DSF > 2 °C [2]: 0 | ΔTm at 10 µM [3]: 0.6 °C | ΔTm at 10 µM [4]: 0.4 °C

CNC(=O)c1ccccc1Nc1nsnc(Nc2ccc(N3CCOCC3)cc2)c1=O [Compound 5, N-Methyl-2-({5-[(4-morpholinophenyl)amino]-4-oxo-4H-1,2,6-thiadiazin-3-yl}amino)benzamide]
melting point: 285 to 287 °C | Number of Kinases Hit DSF > 2 °C [2]: 0 | ΔTm at 10 µM [3]: 1 °C | ΔTm at 10 µM [4]: 0.3 °C
